Assay results published in PubChem BioAssay AID256 (DTP/NCI, 2004).
Toxic doses and inconclusive results are not listed.

Test system: CD2F1 mice, L1210 leukemia ip, survival T/C
Assay: NCI In Vivo Anticancer Drug Screen. Data for tumor model L1210 Leukemia (intraperitoneal) in CD2F1 (CDF1) mice
Conditions: higher = longer survival
Method in brief: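 Read-out first: treated-group measurement over vehicle-control measurement, expressed as a ratio. Animals bore a transplanted tumor line and were dosed with compound or vehicle.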

[1] = endpoint: mean survival time, dose: 100.0 mg/kg/injection, schedule: Q04DX003 (ip), vehicle: saline with Tween-80
[2] = endpoint: mean survival time, dose: 200.0 mg/kg/injection, schedule: Q04DX003 (ip), vehicle: saline with Tween-80
[3] = endpoint: mean survival time, dose: 400.0 mg/kg/injection, schedule: Q04DX003 (ip), vehicle: saline with Tween-80
[4] = endpoint: mean survival time, dose: 100.0 mg/kg/injection, schedule: Q04DX002 (ip), vehicle: saline with Tween-80
[5] = endpoint: mean survival time, dose: 200.0 mg/kg/injection, schedule: Q04DX002 (ip), vehicle: saline with Tween-80
[6] = endpoint: mean survival time, dose: 400.0 mg/kg/injection, schedule: Q04DX002 (ip), vehicle: saline with Tween-80

For `C=CS(=O)(=O)c1ccccc1`, the T/C (endpoint: mean survival time, dose: 18.0 mg/kg/injection, schedule: Q01DX009 (ip), vehicle: saline with Tween-80) was 96 % of control, the T/C (endpoint: mean survival time, dose: 36.0 mg/kg/injection, schedule: Q01DX009 (ip), vehicle: saline with Tween-80) was 93 % of control and the T/C (endpoint: mean survival time, dose: 72.0 mg/kg/injection, schedule: Q01DX009 (ip), vehicle: saline with Tween-80) was 112 % of control.
With `O=C1CCC(=O)N1Br` the T/C (endpoint: mean survival time, dose: 100.0 mg/kg/injection, schedule: Q01DX009 (ip), vehicle: saline with Tween-80) was 101 % of control, the T/C [1] was 100 % of control and the T/C (endpoint: mean survival time, dose: 200.0 mg/kg/injection, schedule: Q01DX009 (ip), vehicle: saline with Tween-80) was 96 % of control. For the same molecule, the T/C [2] was 95 % of control, the T/C (endpoint: mean survival time, dose: 400.0 mg/kg/injection, schedule: Q01DX009 (ip), vehicle: saline with Tween-80) was 101 % of control and the T/C [3] was 91 % of control.
With `CN1CC(=O)n2c(cc3ccccc32)C1=O` the T/C (endpoint: mean survival time, dose: 50.0 mg/kg/injection, schedule: Q04DX002 (ip), vehicle: saline) was 101 % of control, the T/C (endpoint: mean survival time, dose: 100.0 mg/kg/injection, schedule: Q04DX002 (ip), vehicle: saline) was 86 % of control and the T/C (endpoint: mean survival time, dose: 200.0 mg/kg/injection, schedule: Q04DX002 (ip), vehicle: saline) was 93 % of control. The T/C (endpoint: mean survival time, dose: 400.0 mg/kg/injection, schedule: Q04DX002 (ip), vehicle: saline) was 101 % of control.
With `CCNC(=O)OC(C)C` the T/C [4] was 90 % of control, the T/C [5] was 102 % of control and the T/C [6] was 94 % of control.
With `Cn1c(=O)c2c(ncn2C(C=O)OC(C=O)CO)n(C)c1=O` (configuration not stated) the T/C (endpoint: mean survival time, dose: 12.5 mg/kg/injection, schedule: Q01DX005 (ip), vehicle: water) was 101 % of control, the T/C (endpoint: mean survival time, dose: 25.0 mg/kg/injection, schedule: Q01DX005 (ip), vehicle: water) was 104 % of control and the T/C (endpoint: mean survival time, dose: 50.0 mg/kg/injection, schedule: Q01DX005 (ip), vehicle: water) was 110 % of control. The T/C (endpoint: mean survival time, dose: 100.0 mg/kg/injection, schedule: Q01DX005 (ip), vehicle: water) was 112 % of control.
For `C[n+]1csc(=S)[nH]1`, the T/C (endpoint: mean survival time, dose: 100.0 mg/kg/injection, schedule: Q04DX003 (ip), vehicle: saline) was 105 % of control, the T/C (endpoint: mean survival time, dose: 200.0 mg/kg/injection, schedule: Q04DX003 (ip), vehicle: saline) was 109 % of control and the T/C (endpoint: mean survival time, dose: 400.0 mg/kg/injection, schedule: Q04DX003 (ip), vehicle: saline) was 114 % of control.
For `NC(=S)c1cc(C(N)=S)[nH]n1`, the T/C (endpoint: mean survival time, dose: 6.25 mg/kg/injection, schedule: Q01DX005 (ip), vehicle: other) was 101 % of control, the T/C (endpoint: mean survival time, dose: 12.5 mg/kg/injection, schedule: Q01DX005 (ip), vehicle: other) was 97 % of control and the T/C (endpoint: mean survival time, dose: 25.0 mg/kg/injection, schedule: Q01DX005 (ip), vehicle: other) was 93 % of control. For the same molecule, the T/C (endpoint: mean survival time, dose: 50.0 mg/kg/injection, schedule: Q01DX005 (ip), vehicle: other) was 95 % of control.
For `CC/C=C/C(C)OC(=N)C(Cl)(Cl)Cl` (configuration not stated), the T/C [4] was 103 % of control, the T/C [5] was 100 % of control and the T/C [6] was 97 % of control.
For `Cc1ccnc(NS(=O)(=O)c2ccc(N=Nc3nc4[nH]c(N)nc(=S)c4[nH]3)cc2)n1`, the T/C (endpoint: mean survival time, dose: 0.2 mg/kg/injection, schedule: Q01DX009 (ip), vehicle: Klucel (hydroxypropylcellulose) (HPC)) was 96 % of control, the T/C (endpoint: mean survival time, dose: 0.4 mg/kg/injection, schedule: Q01DX009 (ip), vehicle: Klucel (hydroxypropylcellulose) (HPC)) was 106 % of control and the T/C (endpoint: mean survival time, dose: 0.8 mg/kg/injection, schedule: Q01DX009 (ip), vehicle: Klucel (hydroxypropylcellulose) (HPC)) was 106 % of control. The T/C (endpoint: mean survival time, dose: 1.56 mg/kg/injection, schedule: Q01DX009 (ip), vehicle: Klucel (hydroxypropylcellulose) (HPC)) was 203 % of control, the T/C (endpoint: mean survival time, dose: 1.6 mg/kg/injection, schedule: Q01DX009 (ip), vehicle: Klucel (hydroxypropylcellulose) (HPC)) was 117 % of control and the T/C (endpoint: mean survival time, dose: 3.13 mg/kg/injection, schedule: Q01DX009 (ip), vehicle: Klucel (hydroxypropylcellulose) (HPC)) was 150 % of control. For the same molecule, the T/C (endpoint: mean survival time, dose: 6.25 mg/kg/injection, schedule: Q01DX009 (ip), vehicle: Klucel (hydroxypropylcellulose) (HPC)) was 117 % of control.
In the case of `Nc1ccc(OCc2nc(N)nc(N)c2-c2cccc(Cl)c2)cc1`, the T/C (endpoint: mean survival time, dose: 100.0 mg/kg/injection, schedule: Q01DX001 (ip), vehicle: saline + alcohol) is reported as 103 % of control, the T/C (endpoint: mean survival time, dose: 200.0 mg/kg/injection, schedule: Q01DX001 (ip), vehicle: saline + alcohol) is reported as 101 % of control and the T/C (endpoint: mean survival time, dose: 400.0 mg/kg/injection, schedule: Q01DX001 (ip), vehicle: saline + alcohol) is reported as 106 % of control.
In the case of `Nc1cccc(C(=O)O)c1`, the T/C [1] is reported as 95 % of control, the T/C [2] is reported as 94 % of control and the T/C [3] is reported as 94 % of control.
`CC(C)CC(NC(=O)C(O)C(N)Cc1ccccc1)C(=O)O` (configuration not stated) was tested, and the T/C (endpoint: mean survival time, dose: 10.0 micrograms/kg/injection, schedule: Q01DX005 (oral), vehicle: saline) was 96 % of control, the T/C (endpoint: mean survival time, dose: 100.0 micrograms/kg/injection, schedule: Q01DX005 (oral), vehicle: saline) was 100 % of control and the T/C (endpoint: median survival time, dose: 10.0 micrograms/mouse/injection, schedule: Q01DX010 (oral), vehicle: saline) was 97 % of control. For the same molecule, the T/C (endpoint: median survival time, dose: 100.0 micrograms/mouse/injection, schedule: Q01DX010 (oral), vehicle: saline) was 95 % of control.
